{"source": "patent US20110152379A1", "about": "“COMPOSITION FOR CONTROL OF AGING AND/OR EXTENSION OF LIFE, CONTAINING DAPSONE AS ACTIVE INGREDIENT” (priority 2008, published 2011)", "key": {"calcium": {"tested_on": "calcium", "experiment": "Calcium amount in a cell, Fluo-4", "format": "cell-based", "settings": "human diploid fibroblast, 1 mM PQ, FIG. 27", "experimental": "HDF cell was cultured at 96-well plate and the calcium in cell was measured by using Fluo-4AM. […] The amount of Calcium in a cell was measured by using Fluo-4 (5 uM) that is a fluorescent material for labeling calcium and is well passed through a cell. The cell was cultured at 37° C. for 30 minutes and then maintained at a room temperature for 30 minutes without light in order for a complete de-esterification of AM ester in a cell: The fluorescent material that was left was removed except a cell by using HBSS containing 20 mM of HEPES (pH 7.4), and 100 ul of HBSS was added into wells containing cells, respectively. The fluorescent signal was measured at 494 nm for the excitation wavelength and 516 nm for the emission wavelength by using the multi-well fluorescence plate Eclipse fluorescence spectrophotometer (Varian, Calif., USA). The result was shown as Relative fluorescence units (RFUs)."}, "pyruvate": {"tested_on": "pyruvate", "experiment": "Pyruvate content in C. elegans (fluorescence-based assay kit)", "format": "in vivo", "settings": "C. elegans that fed on DDS; FIG. 17A", "experimental": "The measurement of pyruvate content was performed by using Fluorescence-based assay kit (BioVision) was purchased according to its instructions. […] Three measurements were performed."}, "C. elegans [1]": {"tested_on": "C. elegans", "experiment": "Vitality (movements) of worms at 23 days", "format": "in vivo", "settings": "23 days after adult; FIG. 4", "text": "At this time, the arrows indicate the initial positions of worms."}, "pyruvate kinase": {"tested_on": "pyruvate kinase", "experiment": "Pyruvate kinase activity in vivo (worms that fed on DDS)", "set-up": "species or system C. elegans", "settings": "FIG. 16B", "experimental": "PK activity was analyzed through the decrease degree of absorbance at 340 nm by using the change result from pyruvate and NADH to lactate and NAD by lactate dehydrogenase (LDH). The pyruvate and ATP used for the above process were produced from phosphoenolpyruvate (PEP) and ADP by PK. The analysis in vitro was measured by adding directly DDS along with PK to the above reaction mixture and the analysis in vivo was measured by adding worms that fed on DDS.\nSamples were homogenized by rupturing C. elegans with glass bead Precellys 24 homogenizer, twice for 20 seconds, at 5000 rpm in a 100 mM potassium phosphate buffer, pH 7.6, at 37° C. A CHAPS was added to the homogenized sample to be 1% of the final concentration and then centrifuged at 15000 g for 20 minutes. The measurement of pyruvate kinase(PK) activity was performed at 37° C. by adding 300 uL of the reaction mixture contained 100 mM potassium phosphate buffer at pH 7.6 and 37° C., 100 mM MgSO4, 1.3 mM β-NADH, 5000 units/mL of lactate dehydrogenase (LDH), 2 mM adenosine diphosphate (ADP) and 17 mM phosphoenolpyruvate (PEP) into the sample. The change of oxidation degree of NADH was measured at 340 nm of absorbance. PK 1 unit was defined as the change into 1.0 umole of pyruvate per a minute at pH 7.6 and 37° C. […] Type I pyruvate kinase (Sigma) of rabbit muscle was used for in vitro experiment."}, "mitochondria": {"tested_on": "mitochondria", "experiment": "Mitochondria structure staining with MitoTracker Red", "format": "cell-based, human", "settings": "pretreated with DDS or DPI, then 1 mM PQ 24 hours; FIG. 30", "experimental": "The first photograph indicates the stained mitochondria of the non-treated human diploid fibroblast as a control, the second photograph indicates the stained mitochondria of the PQ-treated human diploid fibroblast, the third photograph indicates the stained mitochondria of the human diploid fibroblast that was pretreated with DDS and then was treated with PQ, and the final photograph indicates the stained mitochondria of the human diploid fibroblast that was treated with DPI and PQ together (by using Confocal process). The values of (A, B, C and D: ×4000) is means±SEM (n=3), # is p<0.005 relative CC; and * is p<0.005 relative C.\nThe human diploid fibroblasts were cultured at 24-well plate. After the above experiment materials, i.e., the human diploid fibroblasts, were pretreated and then were treated with PQ for 24 hours, the above cells were treated with MitoTracker Red CMXRos (50 nM), which is a staining material for mitochondria, at 37° C. for 30 minutes. The dye is a marker of function for marking mitochondria through marking a transmembrane potential of mitochondria in a cell. After culturing, the cells were washed with PBS and then fixed with 4% of paraformaldehyde at 4° C. for overnight. […] After washing, the cells were covered with a cover glass and visualized through a fluorescence microscope."}, "C. elegans [2]": {"tested_on": "C. elegans", "experiment": "Oxygen uptake rate of C. elegans (Clark-type oxygen electrode)", "format": "in vivo", "settings": "C. elegans treated with DDS; FIG. 10", "experimental": "The oxygen uptake rate was measured by using the method disclosed in the theses (50, 51) using Clark-type oxygen electrode (782 Oxygen Meter, Strathkelvin Instruments, Glasgow, UK). […] Approximately 1500 C. elegans in 200 uL of S-basal buffer were added to Mitocell chamber with Clark-type oxygen electrode to measure the oxygen uptake rate for several minuets. A sample was carefully taken from the chamber and then twice homogenized at 5000 rpm for 20 seconds by using Precellys24 homogenizer with glass bead. The sample was centrifuged at 15000 g for 20 minutes and the protein in the supernatant was quantified by using BCA protein quantification kit."}, "H2O2": {"tested_on": "H2O2", "experiment": "Hydrogen peroxide by Amplex Red assay in paraquat-treated C. elegans", "format": "in vivo", "settings": "250 mM paraquat for 1 hour; FIG. 11", "procedure": "The effect of dapsone on ROS scavenging was measured by using Amplex Red hydrogen peroxide/peroxygenase detection kit (Molecular Probes, Eugene, Oreg.) [39] that were previously described in order to measure the effect of dapsone on ROS scavenging. Simply put, 150 C. elegans that fed only on PABA or fed on PABA and dapsone was treated with 250 mM of paraquat for 1 hour. 100 C. elegans were adjusted to be 50 ul at 96-well plate and then 50 ul of Amplex Red (200 uM) was added to each well. After maintaining at 22° C. for 90 minutes, the amount of hydrogen peroxide was measured at 540 nm of absorbance by using a plate reader (Tecan, infinite 200)."}, "[3]": {"tested_on": "mitochondria superoxide anion", "experiment": "Superoxide anion in mitochondria, MitoSOX Red", "format": "cell-based", "settings": "human diploid fibroblast; 1 mM PQ 30 minutes; FIG. 24B", "experimental": "The cell was treated with 1 mM of PQ for 30 minutes, and then was cultured at 37° C. for 15 minutes after adding oxidant-sensitive fluorescent dyes (A) DHE (5 uM, cytosol specific) and (B) MitoSOX (5 uM, mitochondria specific), respectively. For identifying the change of fluorescence, the excitation and emission wavelength of DHE were measured at 515 and 590 nm and MitoSOX was measured at 520 and 580 nm by using a multiwell plate reader. The results were indicated by calculating the results of three experiments as a control rate (%). The statistical significant was expressed as *, # p<0.005; ** p<0.05.\nMitochondria superoxide anion was measured by using the fluorescence material, i.e., MitoSOX Red. […] The cell was twice washed with DPBS and the fluorescence was immediately measured at excitation wavelength 515 nm and emission wavelength 590 nm by using CEFS [Cary Eclipse fluorescence spectrophotometer (Varian, Calif., USA)] machine."}}, "data": [{"smiles": "Nc1ccc(S(=O)(=O)c2ccc(N)cc2)cc1", "note": "[DDS, 4,4′-diaminodiphenylsulfone]", "values": [{"measurement": "amount of calcium increased by PQ", "setting": "calcium", "value": "decreases"}, {"measurement": "content of pyruvate compared with a control", "setting": "pyruvate", "value": "high content of pyruvate"}, {"measurement": "movement of worms", "setting": "C. elegans [1]", "value": "more strong active movement"}, {"measurement": "biochemical activity of PK in vivo", "setting": "pyruvate kinase", "value": "suppresses"}, {"measurement": "shape of mitochondria after PQ (MitoTracker)", "setting": "mitochondria", "value": "recovered, partially"}, {"measurement": "oxygen uptake rate", "setting": "C. elegans [2]", "value": "meaningfully decreased"}, {"measurement": "ROS (H2O2) generation by PQ", "setting": "H2O2", "value": "meaningfully suppresses"}, {"measurement": "production of superoxide anion in the mitochondria", "setting": "[3]", "value": "suppresses"}]}]}
